Test results from PubChem BioAssay (NCI).
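Dose response: 5 concentrations. Exposure: 48 h. Format: 96-well plates. Endpoint: linear interpolation; highest concentration if not reached. Abbreviation: GI50, concentration required for 50% inhibition of growth. TGI: concentration producing complete growth inhibition.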

Experiments:
Assay in all cases: NCI anticancer screen, dose series, 48 h
A498 renal = system: A498 renal
UACC-62 melanoma = system: UACC-62 melanoma
SNB-19 CNS = system: SNB-19 CNS
U251 CNS = system: U251 CNS
UACC-257 melanoma = system: UACC-257 melanoma
OVCAR-8 ovarian = system: OVCAR-8 ovarian
HOP-92 NSCLC = system: HOP-92 NSCLC
RPMI-8226 leukemia = system: RPMI-8226 leukemia
SK-MEL-28 melanoma = system: SK-MEL-28 melanoma
CAKI-1 renal = system: CAKI-1 renal
SK-OV-3 ovarian = system: SK-OV-3 ovarian
TK-10 renal = system: TK-10 renal
M14 melanoma = system: M14 melanoma
T-47D breast = system: T-47D breast
SF-268 CNS = system: SF-268 CNS
NCI-H226 lung = system: NCI-H226 lung
SR leukemia = system: SR leukemia
SN12C renal = system: SN12C renal
IGROV1 ovarian = system: IGROV1 ovarian
SNB-75 CNS = system: SNB-75 CNS
DU-145 prostate = system: DU-145 prostate
NCI-H23 lung = system: NCI-H23 lung
NCI/ADR-RES ovarian = system: NCI/ADR-RES ovarian
SK-MEL-5 melanoma = system: SK-MEL-5 melanoma
HL-60(TB) leukemia = system: HL-60(TB) leukemia
UO-31 renal = system: UO-31 renal
OVCAR-5 ovarian = system: OVCAR-5 ovarian
HT29 colon = system: HT29 colon
HCT-15 colon = system: HCT-15 colon
PC-3 prostate = system: PC-3 prostate
BT-549 breast = system: BT-549 breast
KM12 colon = system: KM12 colon
HOP-62 NSCLC = system: HOP-62 NSCLC
CCRF-CEM leukemia = system: CCRF-CEM leukemia
SK-MEL-2 melanoma = system: SK-MEL-2 melanoma
MOLT-4 leukemia = system: MOLT-4 leukemia
786-0 renal = system: 786-0 renal
SW-620 colon = system: SW-620 colon
ACHN renal = system: ACHN renal
NCI-H522 lung = system: NCI-H522 lung
OVCAR-4 ovarian = system: OVCAR-4 ovarian
HCT-116 colon = system: HCT-116 colon
COLO 205 colon = system: COLO 205 colon
MALME-3M melanoma = system: MALME-3M melanoma
A549 NSCLC = system: A549 NSCLC
MDA-MB-435 = system: MDA-MB-435
MDA-MB-231 breast = system: MDA-MB-231 breast
SF-539 CNS = system: SF-539 CNS
LOX IMVI melanoma = system: LOX IMVI melanoma
EKVX NSCLC = system: EKVX NSCLC
SF-295 CNS = system: SF-295 CNS
HCC-2998 colon = system: HCC-2998 colon
NCI-H460 lung = system: NCI-H460 lung
OVCAR-3 ovarian = system: OVCAR-3 ovarian
MCF7 breast = system: MCF7 breast
RXF 393 renal = system: RXF 393 renal
HS 578T breast = system: HS 578T breast
K-562 leukemia = system: K-562 leukemia

## CCC(=C/[C@H](C)C/C=C/C(C)=C/[C@@H](C)C(=O)[C@@H](C)[C@H](O)[C@@H](C)CC)/C=C/[C@@H]1OC(=O)C=C[C@@H]1C
A498 renal
  GI50: < 5 nM
  TGI: < 5 nM
UACC-62 melanoma
  GI50: < 5 nM
  TGI: 243 nM
SNB-19 CNS
  GI50: < 5 nM
  TGI: 3500 nM
U251 CNS
  GI50: < 5 nM
  TGI: 2060 nM
UACC-257 melanoma
  GI50: < 5 nM
  TGI: 8900 nM
OVCAR-8 ovarian
  GI50: < 5 nM
  TGI: 6160 nM
HOP-92 NSCLC
  GI50: < 5 nM
  TGI: < 5 nM
RPMI-8226 leukemia
  GI50: < 5 nM
  TGI: < 5 nM
SK-MEL-28 melanoma
  GI50: < 5 nM
  TGI: 75.7 nM
CAKI-1 renal
  GI50: < 5 nM
  TGI: 8530 nM
SK-OV-3 ovarian
  GI50: < 5 nM
  TGI: 6500 nM
TK-10 renal
  GI50: < 5 nM
  TGI: 10700 nM
M14 melanoma
  GI50: < 5 nM
  TGI: < 5 nM
T-47D breast
  GI50: < 5 nM
  TGI: 6180 nM
SF-268 CNS
  GI50: < 5 nM
  TGI: 2190 nM
NCI-H226 lung
  GI50: < 5 nM
  TGI: < 5 nM
SR leukemia
  GI50: < 5 nM
  TGI: 219 nM
SN12C renal
  GI50: < 5 nM
  TGI: 4320 nM
IGROV1 ovarian
  GI50: 92.6 nM
  TGI: 7880 nM
SNB-75 CNS
  GI50: < 5 nM
  TGI: 77.3 nM
DU-145 prostate
  GI50: < 5 nM
  TGI: 5710 nM
NCI-H23 lung
  GI50: < 5 nM
  TGI: 4290 nM
NCI/ADR-RES ovarian
  GI50: < 5 nM
  TGI: 1370 nM
SK-MEL-5 melanoma
  GI50: < 5 nM
  TGI: < 5 nM
HL-60(TB) leukemia
  GI50: < 5 nM
  TGI: < 5 nM
UO-31 renal
  GI50: < 5 nM
  TGI: 214 nM
OVCAR-5 ovarian
  GI50: < 5 nM
  TGI: 4740 nM
HT29 colon
  GI50: < 5 nM
  TGI: 5310 nM
HCT-15 colon
  GI50: < 5 nM
  TGI: 409 nM
PC-3 prostate
  GI50: < 5 nM
  TGI: 5940 nM
BT-549 breast
  GI50: < 5 nM
  TGI: < 5 nM
KM12 colon
  GI50: < 5 nM
  TGI: 5170 nM
HOP-62 NSCLC
  GI50: < 5 nM
  TGI: 874 nM
CCRF-CEM leukemia
  GI50: < 5 nM
  TGI: 1800 nM
SK-MEL-2 melanoma
  GI50: < 5 nM
  TGI: 3030 nM
MOLT-4 leukemia
  GI50: < 5 nM
  TGI: < 5 nM
786-0 renal
  GI50: < 5 nM
  TGI: < 5 nM
SW-620 colon
  GI50: < 5 nM
  TGI: 3180 nM
ACHN renal
  GI50: < 5 nM
  TGI: 6290 nM
NCI-H522 lung
  GI50: < 5 nM
  TGI: 81.7 nM
OVCAR-4 ovarian
  GI50: < 5 nM
  TGI: 6660 nM
HCT-116 colon
  GI50: < 5 nM
  TGI: < 5 nM
COLO 205 colon
  GI50: < 5 nM
  TGI: < 5 nM
MALME-3M melanoma
  GI50: < 5 nM
  TGI: 253 nM
A549 NSCLC
  GI50: < 5 nM
  TGI: 7020 nM
MDA-MB-435
  GI50: < 5 nM
  TGI: < 5 nM
MDA-MB-231 breast
  GI50: < 5 nM
  TGI: 4640 nM
SF-539 CNS
  GI50: < 5 nM
  TGI: < 5 nM
LOX IMVI melanoma
  GI50: < 5 nM
  TGI: 584 nM
EKVX NSCLC
  GI50: < 5 nM
  TGI: 8330 nM
SF-295 CNS
  GI50: < 5 nM
  TGI: 7490 nM
HCC-2998 colon
  GI50: < 5 nM
  TGI: < 5 nM
NCI-H460 lung
  GI50: < 5 nM
  TGI: 53.3 nM
OVCAR-3 ovarian
  GI50: < 5 nM
  TGI: 6300 nM
MCF7 breast
  GI50: < 5 nM
  TGI: 158 nM
RXF 393 renal
  GI50: < 5 nM
  TGI: 71.1 nM
HS 578T breast
  GI50: < 5 nM
  TGI: 2450 nM

## CCN(CC)c1ccc2c(cc1=O)[C@@H](NC(C)=O)CCc1cc(OC)c(OC)c(OC)c1-2
A498 renal
  GI50: 260 nM
UACC-62 melanoma
  GI50: 311 nM
  TGI: > 100000 nM
SNB-19 CNS
  GI50: 409 nM
  TGI: > 100000 nM
U251 CNS
  GI50: 407 nM
  TGI: > 100000 nM
UACC-257 melanoma
  GI50: > 100000 nM
  TGI: > 100000 nM
OVCAR-8 ovarian
  GI50: 467 nM
  TGI: > 100000 nM
HOP-92 NSCLC
  GI50: 7110 nM
  TGI: > 100000 nM
RPMI-8226 leukemia
  GI50: 288 nM
  TGI: > 100000 nM
SK-MEL-28 melanoma
  GI50: > 100000 nM
  TGI: > 100000 nM
CAKI-1 renal
  GI50: 4620 nM
  TGI: > 100000 nM
SK-OV-3 ovarian
  GI50: 407 nM
  TGI: > 100000 nM
TK-10 renal
  GI50: 65200 nM
  TGI: > 100000 nM
T-47D breast
  GI50: > 100000 nM
  TGI: > 100000 nM
SF-268 CNS
  GI50: 511 nM
  TGI: > 100000 nM
NCI-H226 lung
  GI50: 409 nM
  TGI: > 100000 nM
SR leukemia
  GI50: 52.9 nM
  TGI: > 100000 nM
SN12C renal
  GI50: 691 nM
  TGI: > 100000 nM
IGROV1 ovarian
  GI50: 510 nM
  TGI: > 100000 nM
SNB-75 CNS
  GI50: 321 nM
  TGI: > 100000 nM
DU-145 prostate
  GI50: 368 nM
NCI-H23 lung
  GI50: 578 nM
  TGI: > 100000 nM
NCI/ADR-RES ovarian
  GI50: 14300 nM
  TGI: > 100000 nM
SK-MEL-5 melanoma
  GI50: 302 nM
  TGI: 1560 nM
HL-60(TB) leukemia
  GI50: 63.3 nM
  TGI: 319 nM
UO-31 renal
  GI50: 6720 nM
  TGI: > 100000 nM
OVCAR-5 ovarian
  GI50: 2450 nM
  TGI: > 100000 nM
K-562 leukemia
  GI50: 224 nM
  TGI: > 100000 nM
HT29 colon
  GI50: 331 nM
HCT-15 colon
  GI50: 2640 nM
  TGI: > 100000 nM
PC-3 prostate
  GI50: 366 nM
  TGI: > 100000 nM
BT-549 breast
  GI50: 245 nM
  TGI: 7280 nM
KM12 colon
  GI50: 282 nM
  TGI: > 100000 nM
HOP-62 NSCLC
  GI50: 563 nM
  TGI: > 100000 nM
CCRF-CEM leukemia
  GI50: 213 nM
  TGI: > 100000 nM
SK-MEL-2 melanoma
  GI50: 275 nM
  TGI: > 100000 nM
MOLT-4 leukemia
  GI50: 511 nM
  TGI: > 100000 nM
786-0 renal
  GI50: 622 nM
  TGI: > 100000 nM
SW-620 colon
  GI50: 287 nM
  TGI: > 100000 nM
ACHN renal
  GI50: 2620 nM
  TGI: > 100000 nM
NCI-H522 lung
  GI50: 218 nM
  TGI: 579 nM
OVCAR-4 ovarian
  GI50: 3320 nM
  TGI: > 100000 nM
HCT-116 colon
  GI50: 205 nM
  TGI: > 100000 nM
COLO 205 colon
  GI50: 101 nM
  TGI: 500 nM
MALME-3M melanoma
  GI50: > 100000 nM
  TGI: > 100000 nM
A549 NSCLC
  GI50: 744 nM
  TGI: > 100000 nM
MDA-MB-435
  GI50: 59.4 nM
  TGI: 305 nM
MDA-MB-231 breast
  GI50: 552 nM
  TGI: > 100000 nM
SF-539 CNS
  GI50: 217 nM
LOX IMVI melanoma
  GI50: 345 nM
  TGI: > 100000 nM
EKVX NSCLC
  GI50: 714 nM
  TGI: > 100000 nM
SF-295 CNS
  GI50: 277 nM
  TGI: > 100000 nM
HCC-2998 colon
  GI50: 347 nM
  TGI: > 100000 nM
NCI-H460 lung
  GI50: 359 nM
  TGI: > 100000 nM
OVCAR-3 ovarian
  GI50: 250 nM
  TGI: 647 nM
MCF7 breast
  GI50: 148 nM
  TGI: > 100000 nM
RXF 393 renal
  GI50: 381 nM
  TGI: > 100000 nM
HS 578T breast
  GI50: 648 nM
  TGI: > 100000 nM
